Measured values as given in patent US20220079984A1, “METHOD FOR TREATING CANCER WITH KIDNEY PROTECTION” (Renibus Therapeutics, Inc., priority 2020, published 2022).

Columns and labels:
CD-1 mice = experiment: RBT-3 preconditioning: cisplatin nephrotoxicity and renal cisplatin uptake; type: in vivo; conditions: cisplatin 15 mg/Kg IP ± 1 mg RBT-3 IV 18 hrs before, 3 days post cisplatin, mean ± SEM
Description: 4. […] Mice were injected with 1 mg RBT-3 or saline vehicle via the tail vein (n, 5 each). […] Free food and water were provided throughout. […] Plasma levels of the proximal tubule enzyme, N-acetyl glucosamidase (“NAG”), were also assessed (BioAssay Systems #DNAG-100; Hayward, Calif.). […] Statistics. Each sample was assayed in duplicate with the average being used for data presentation and analysis. The human hepcidin data are presented as means±1 SD. Baseline plasma hepcidin values for the HV and CKD groups were compared by unpaired Student's t test. Comparisons of hepcidin levels over time were analyzed by ANOVA for repeated measures with 95% confidence intervals being presented. Baseline demographic data were compared by unpaired Student's t test. Mouse data are given as means±1 SEM.

mice = experiment: SnPP preconditioning against cisplatin nephrotoxicity; type: in vivo; set-up: P creatinine: unit not given here
[1] = SnPP 1 umole or vehicle day zero, cisplatin 15 mg/kg day 1, 3 days post cisplatin

| SMILES | BUN (CD-1 mice) [mg/dL] | Creat (CD-1 mice) [mg/dL] | Plasma NAG (CD-1 mice) [activity units/liter] | HO-1 mRNA (mice; 3 days post cisplatin) | IL-6 mRNA (mice; 3 days post cisplatin) | MCP-1 mRNA (mice; 3 days post cisplatin) | NGAL mRNA (mice; 3 days post cisplatin) | P21 mRNAs (mice; 3 days post cisplatin) | BUN (mice; [1]) | P creatinine (mice; [1]) | Tissue LDH (mice; renal cortical, 3 days post cisplatin) | protection in cisplatin treated mice, compared to cisplatin alone (mice; P<0.01) |
| --- | --- | --- | --- | --- | --- | --- | --- | --- | --- | --- | --- | --- |
| N.N.[Cl][Pt][Cl] [Cisplatin, cis-diammine dichloroplatinum II] | 105 ± 11 | 0.7 ± 0.1 | 19.5 ± 0.8 | 1.16 ± 0.28 | 2.51 ± 1.65 | 10.9 ± 5.7 | 16.9 ± 12 | 4.23 ± 0.61 | 103 ± 22 | 0.94 ± 0.41 | 754 ± 54 | – |
| C=Cc1c2[n-]c(c1C)/C=c1\[n-]/c(c(C)c1C=C)=C\c1[n-]c(c(CCC(=O)O)c1C)/C=c1\[n-]c(c(C)c1CCC(=O)O)=C2.[Sn+4] [SnPP, tin protoporphyrin] | – | – | – | – | – | – | – | – | – | – | – | statistically significant protection |
